Assay results published in patent publication US20220249492A1, “ANTICANCER COMBINATION THERAPY” (Boehringer Ingelheim International GmbH, priority 2019, published 2022).
pIC50: −log10 of the molar value.

Key:
[1] = Metabolic (microsomal) stability assay, human (HLM); type: in vitro ADME; conditions: human liver microsomes, 1 mg/mL protein, 1 μM test compound, 37° C.; predicted clearance as percent of liver blood flow
Experimental: (§1) Metabolic (Microsomal) Stability Assay:
(§2) The metabolic degradation of the test compound is assayed at 37° C. with pooled liver microsomes (mouse (MLM), rat (RLM) or human (HLM)). The final incubation volume of 74 μL per time point contains TRIS buffer (pH 7.5; 0.1 M), magnesium chloride (6.5 mM), microsomal protein (0.5 mg/mL for mouse/rat, 1 mg/mL for human specimens) and the test compound at a final concentration of 1 μM. Following a short preincubation period at 37° C., the reactions are initiated by addition of 8 μL beta-nicotinamide adenine dinucleotide phosphate, reduced form (NADPH, 10 mM) and terminated by transferring an aliquot into solvent after different time points. Additionally, the NADPH-independent degradation is monitored in incubations without NADPH, terminated at the last time point by addition of acetonitrile. The quenched incubations are pelleted by centrifugation (1811 g, 5 min). An aliquot of the supernatant is assayed by LC-MS/MS for the amount of parent compound.
(§3) In vitro intrinsic clearance (CLint,in vitro) is calculated from the time course of the disappearance of the test drug during the microsomal incubation. […] For better across species comparison the predicted clearance is expressed as percent of the liver blood flow [% QH] in the individual species. […]

[2] = Metabolic (microsomal) stability assay, rat (RLM); type: in vitro ADME; conditions: rat liver microsomes, 0.5 mg/mL protein, 1 μM test compound, 37° C.; predicted clearance as percent of liver blood flow
Experimental: as §1, §2, §3

[3] = biological target: T1, protein-protein interaction between SOS1 and KRAS G12D (Homo sapiens, UniProt Q07889); assay: KRAS::SOS1 AlphaScreen binding assay
T1 construct: GST-TEV-SOS1 (564-1049) is purchased from Viva Biotech Ltd; purchased Viva Biotech Ltd. (GST-TEV-SOS1); Xtal BioStructures, Inc. (K-Ras G12D) Lot #X129-110 (K-Ras)
T1 sequence (Q07889 564-1049): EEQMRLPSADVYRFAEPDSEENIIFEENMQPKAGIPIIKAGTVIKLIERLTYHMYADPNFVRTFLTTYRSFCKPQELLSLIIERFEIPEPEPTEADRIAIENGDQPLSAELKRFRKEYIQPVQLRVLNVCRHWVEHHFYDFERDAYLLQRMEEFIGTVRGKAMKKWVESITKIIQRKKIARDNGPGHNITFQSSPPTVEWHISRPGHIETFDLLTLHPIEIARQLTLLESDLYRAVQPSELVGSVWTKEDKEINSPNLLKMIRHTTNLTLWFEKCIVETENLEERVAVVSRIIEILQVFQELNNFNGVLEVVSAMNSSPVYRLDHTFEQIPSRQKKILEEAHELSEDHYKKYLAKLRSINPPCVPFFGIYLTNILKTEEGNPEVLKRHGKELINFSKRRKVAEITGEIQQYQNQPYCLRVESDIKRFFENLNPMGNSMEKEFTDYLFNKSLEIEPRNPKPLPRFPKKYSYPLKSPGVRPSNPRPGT
Experimental: KRAS::SOS1 AlphaScreen Binding Assay
Low IC50 values are indicative of high potency of the SOS1 inhibitors in this assay setting:
10 nM (final assay concentration) KRAS G12D, 10 μM (final assay concentration) GDP and 5 nM (final assay concentration) GST-SOS1 are mixed in assay buffer prior to use and kept at room temperature.
AlphaLISA Glutathione Acceptor Beads and AlphaScreen Streptavidin Donor Beads are mixed in assay buffer at a concentration of 10 μg/mL (final assay concentration) each prior to use and kept at room temperature.
Compounds are diluted to a final start concentration of 100 μM and are tested in duplicate. Assay-ready plates (ARPs) are generated using an Access Labcyte Workstation with a Labcyte Echo 550 or 555 accoustic dispenser. For compound a start concentration of 100 μM, 150 nL of compound solution is transferred per well in 11 concentrations in duplicate with serial 1:5 dilutions.
The assay is run using a fully automated robotic system in a darkened room below 100 Lux. 10 μL of KRAS::SOS1 GDP mix is added into columns 1-24 to the 150 nL of compound solution (final dilution in the assay 1:100, final DMSO concentration 1%).
After a 30 minute incubation time 5 μL of bead mix is added into columns 1-23. Plates are kept at room temperature in a darkened incubator. After a further 60 minute incubation, the signal is measured using a PerkinElmer Envision HTS Multilabel Reader using the AlphaScreen specifications from PerkinElmer. Each plate contains the following controls: • diluted DMSO+KRAS::SOS1 GDP mix+bead mix • diluted DMSO+KRAS::SOS1 GDP mix
IC50 values are calculated and analyzed using a 4 parametric logistic model.

CYP3A4 = biological target: T2, CYP3A4 (Homo sapiens, UniProt P08684); assay: Time dependent inhibition of CYP3A4 assay (TDI 3A4); type: in vitro ADME; conditions: human liver microsomes, 25 uM test compound; hydroxy-midazolam formation after 30 min preincubation relative to 0 min preincubation
T2 construct: from tissue; host or cells: human liver microsomes
Experimental: Time dependent inhibition of CYP3A4 Assay (TDI 3A4):
The time dependent inhibition towards CYP3A4 is assayed in human liver microsomes (0.02 mg/mL) with midazolam (15 μM) as a substrate. The test compounds are preincubated in presence of NADPH with human liver microsomes (0.2 mg/mL) at a concentration of 25 uM for 0 min and 30 min. After preincubation, the incubate is diluted 1:10 and the substrate midazolam is added for the main incubation (15 min). The main incubation is quenched with acetonitrile and the formation of hydroxy-midazolam is quantified via LC/MS-MS. The formation of hydroxy-midazolam from the 30 min preincubation relative to the formation from the 0 min preincubation is used as a readout. Values of less than 100% mean that the substrate midazolam is metabolized to a lower extend upon 30 min preincubation compared to 0 min preincubation. In general low effects upon 30 min preincubation are desired (corresponding to values close to 100%)

[4] = Metabolic (microsomal) stability assay, mouse (MLM); type: in vitro ADME; conditions: mouse liver microsomes, 0.5 mg/mL protein, 1 μM test compound, 37° C.; predicted clearance as percent of liver blood flow
Experimental: as §1, §2, §3

[5] = system: ERK phosphorylation (pERK Thr202/Tyr204) in DLD-1 cells (KRAS G13D); assay: ERK phosphorylation assay (AlphaLISA SureFire Ultra p-ERK1/2) in DLD-1 cells; type: cell-based; conditions: Homo sapiens, 1 h compound incubation, EGF 50 ng/mL for 10 minutes
Experimental: ERK Phosphorylation Assay
Low IC50 values are indicative of high potency of the SOS1 inhibitors in this assay setting.
ERK phosphorylation assays are performed using the following human cell lines:
DLD-1 (ATCC CCL-221): human colon cancer with a KRAS G13D mutation;
DLD-1 cells (ATCC CCL-221) are seeded at 50,000 cells per well in/60 μL of RPMI with 10% FBS, non-essential amino acids, pyruvate and glutamax in Greiner TC 384 plates. The cells are incubated for 1 h at room temperature and then incubated overnight in an incubator at 37° C. and 5% CO2 in a humidified atmosphere. 60 nL compound solution (10 mM DMSO stock solution) is then added using a Labcyte Echo 550 device. After a 1 h incubation in the aforementioned incubator, 3 μL Epidermal Growth Factor (EGF, final concentration 50 ng/mL) is added. […] After 20 minutes of incubation at room temperature with shaking, 6 μL of each lysate sample is transferred to a 384-well Proxiplate and analyzed for pERK (Thr202/Tyr204) with the AlphaLISA SureFire Ultra pERK1/2 (Thr202/Tyr204) Assay Kit. 3 μL Acceptor Mix and 3 μL Donor Mix are added under subdued light and incubated for 2 h at room temperature in the dark, before the signal is measured on a Perkin Elmer Envision plate reader using 384 AlphaScreen settings for Proxiplates. […]

[6] = KRAS G12D::SOS1 AlphaScreen, measured without EDTA unless marked with an asterisk
[7] = KRAS::SOS1 AlphaScreen, KRAS G12D, IC50, tables 20 and 24

T2 sequence (P08684 whole entry): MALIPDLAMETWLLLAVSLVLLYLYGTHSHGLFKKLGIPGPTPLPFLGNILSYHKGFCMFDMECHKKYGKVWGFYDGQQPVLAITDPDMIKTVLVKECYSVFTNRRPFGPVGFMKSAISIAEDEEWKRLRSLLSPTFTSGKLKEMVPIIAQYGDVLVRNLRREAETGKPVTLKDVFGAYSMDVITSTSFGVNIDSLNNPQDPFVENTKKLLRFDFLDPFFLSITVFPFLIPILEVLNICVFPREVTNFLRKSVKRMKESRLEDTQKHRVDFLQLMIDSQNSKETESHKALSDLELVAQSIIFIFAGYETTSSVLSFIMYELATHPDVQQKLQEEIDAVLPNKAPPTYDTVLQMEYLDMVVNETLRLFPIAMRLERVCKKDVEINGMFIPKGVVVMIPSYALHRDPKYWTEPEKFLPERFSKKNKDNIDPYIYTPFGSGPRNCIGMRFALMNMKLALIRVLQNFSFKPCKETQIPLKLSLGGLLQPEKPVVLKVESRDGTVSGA

SMILES	pIC50 [3, 6]	pIC50 [3, 7]	pIC50 [5]	HLM [% QH] [1]	RLM [% QH] [2]	TDI 3A4 [%] (CYP3A4)	MLM [% QH] [4]
Cc1nc(N[C@H](C)c2cccc(C(F)(F)F)c2C)c2cn(C34CCN(CC3)CC4)c(=O)cc2n1 [I-128]	8.70			29 % QH	<23 % QH	98%	<24 % QH
Cc1nc(N[C@H](C)c2cccc(C(F)(F)F)c2C)c2cn([C@H]3C[C@H](F)C3)c(=O)cc2n1 [I-45]		7.96	7.33				
C[C@@H](Nc1ncnc2cc(=O)n(C34CC(F)(C3)C4)cc12)c1cccc(C(C)(F)F)c1F [I-78]		8.05		<24 % QH	<23 % QH		<24 % QH

Now from value to molecule, other results behind:

pIC50 [3, 6]	pIC50 [3, 7]	pIC50 [5]	SMILES	HLM [% QH] [1]	RLM [% QH] [2]	TDI 3A4 [%] (CYP3A4)	MLM [% QH] [4]
	7.74		Cc1c(=O)n(C2(C)CC2)cc2c(N[C@H](C)c3cccc(C(F)(F)F)c3)ncnc12 [I-173]			84%	
7.74			Cc1nc(N[C@H](C)c2cccc(C(C)(F)F)c2)c2cn(C3(C(F)(F)F)CCOC3)c(=O)cc2n1 (stereo partly drawn) [I-129]				
7.96			C[C@@H](Nc1ncnc2c(C3CC3)c(=O)n(C3(C)CC3)cc12)c1cccc(C(F)F)c1F [I-179]				
